We go through 29 compounds from patent US20150087627A1, “COMBINATION OF KINASE INHIBITORS AND USES THEREOF” (Intellikine LLC, priority 2011, published 2015).

For series [1] the following is noted: clinical use of the marketed drug; cited from earlier work.
Series [2] deals with T1, PI3K α (p110α/p85α) (Homo sapiens, UniProt P42336).
T1 construct: purchased Upstate / Millipore Corporation
The experiment in a line: PI 3-Kinase (human) HTRF assay, PI3K α. The conditions noted are these: read-out: PI3K α IC50. The format is biochemical.

The target in series [3] is T2, PI3K β (p110β/p85α) (Homo sapiens, UniProt P42338).
T2 construct: purchased Upstate / Millipore Corporation
T2 sequence (P42338 whole entry): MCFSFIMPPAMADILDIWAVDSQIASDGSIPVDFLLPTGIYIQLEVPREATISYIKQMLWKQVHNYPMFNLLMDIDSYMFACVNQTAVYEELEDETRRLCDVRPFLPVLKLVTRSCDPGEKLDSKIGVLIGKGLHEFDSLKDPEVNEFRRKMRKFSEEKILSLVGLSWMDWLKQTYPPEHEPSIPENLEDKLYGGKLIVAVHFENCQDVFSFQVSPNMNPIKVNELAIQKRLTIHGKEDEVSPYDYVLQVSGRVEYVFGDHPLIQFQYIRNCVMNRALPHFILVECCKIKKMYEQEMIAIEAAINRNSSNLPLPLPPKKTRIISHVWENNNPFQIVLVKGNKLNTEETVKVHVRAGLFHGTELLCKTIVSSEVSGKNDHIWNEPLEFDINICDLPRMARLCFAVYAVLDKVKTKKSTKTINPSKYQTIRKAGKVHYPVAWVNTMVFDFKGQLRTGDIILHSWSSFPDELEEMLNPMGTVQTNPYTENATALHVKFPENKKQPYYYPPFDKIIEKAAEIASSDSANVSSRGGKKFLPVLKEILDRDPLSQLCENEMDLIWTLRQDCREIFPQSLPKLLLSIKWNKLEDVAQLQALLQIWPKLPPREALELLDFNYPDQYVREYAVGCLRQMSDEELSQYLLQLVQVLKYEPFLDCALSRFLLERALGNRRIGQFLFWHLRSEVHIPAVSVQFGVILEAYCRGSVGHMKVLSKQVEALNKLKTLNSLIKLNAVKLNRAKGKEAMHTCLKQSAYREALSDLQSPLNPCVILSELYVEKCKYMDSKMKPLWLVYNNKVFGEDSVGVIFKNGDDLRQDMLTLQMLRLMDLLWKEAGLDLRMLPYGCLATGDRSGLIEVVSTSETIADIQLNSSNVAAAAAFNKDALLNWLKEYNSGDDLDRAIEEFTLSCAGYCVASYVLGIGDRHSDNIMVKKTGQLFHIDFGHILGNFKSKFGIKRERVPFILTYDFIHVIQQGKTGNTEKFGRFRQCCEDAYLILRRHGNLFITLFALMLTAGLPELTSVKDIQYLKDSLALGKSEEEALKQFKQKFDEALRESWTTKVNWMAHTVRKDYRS
T2 sequence (P27986 whole entry partner): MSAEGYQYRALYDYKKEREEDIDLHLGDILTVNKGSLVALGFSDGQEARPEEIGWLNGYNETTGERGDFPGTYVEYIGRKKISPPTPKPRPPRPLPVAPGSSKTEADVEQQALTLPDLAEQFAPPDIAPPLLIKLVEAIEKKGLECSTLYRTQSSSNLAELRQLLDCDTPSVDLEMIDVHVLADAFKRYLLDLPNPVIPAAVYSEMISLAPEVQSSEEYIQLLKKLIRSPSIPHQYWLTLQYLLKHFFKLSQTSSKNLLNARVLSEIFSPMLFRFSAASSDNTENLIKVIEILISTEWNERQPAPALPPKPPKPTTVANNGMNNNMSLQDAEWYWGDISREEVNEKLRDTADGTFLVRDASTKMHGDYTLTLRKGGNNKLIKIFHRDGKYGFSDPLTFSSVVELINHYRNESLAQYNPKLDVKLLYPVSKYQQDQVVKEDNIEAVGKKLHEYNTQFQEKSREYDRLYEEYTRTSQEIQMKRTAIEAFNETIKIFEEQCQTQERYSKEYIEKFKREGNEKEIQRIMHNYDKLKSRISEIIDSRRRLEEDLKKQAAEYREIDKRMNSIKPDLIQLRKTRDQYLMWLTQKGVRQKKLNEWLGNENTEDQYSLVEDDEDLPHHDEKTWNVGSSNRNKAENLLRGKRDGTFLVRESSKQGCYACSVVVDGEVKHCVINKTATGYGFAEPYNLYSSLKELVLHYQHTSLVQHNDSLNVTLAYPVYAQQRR
The series can be described thus: PI 3-Kinase (human) HTRF assay, PI3K β. It counts as biochemical. The conditions noted are these: read-out: PI3K β IC50. On the technique in general: Time-resolved FRET reads energy transfer from a long-lived donor to a nearby acceptor.

The target of series [4] is T3, PI3K δ (Homo sapiens, UniProt O00329).
T3 construct: purchased Upstate / Millipore Corporation
T3 sequence (O00329 whole entry): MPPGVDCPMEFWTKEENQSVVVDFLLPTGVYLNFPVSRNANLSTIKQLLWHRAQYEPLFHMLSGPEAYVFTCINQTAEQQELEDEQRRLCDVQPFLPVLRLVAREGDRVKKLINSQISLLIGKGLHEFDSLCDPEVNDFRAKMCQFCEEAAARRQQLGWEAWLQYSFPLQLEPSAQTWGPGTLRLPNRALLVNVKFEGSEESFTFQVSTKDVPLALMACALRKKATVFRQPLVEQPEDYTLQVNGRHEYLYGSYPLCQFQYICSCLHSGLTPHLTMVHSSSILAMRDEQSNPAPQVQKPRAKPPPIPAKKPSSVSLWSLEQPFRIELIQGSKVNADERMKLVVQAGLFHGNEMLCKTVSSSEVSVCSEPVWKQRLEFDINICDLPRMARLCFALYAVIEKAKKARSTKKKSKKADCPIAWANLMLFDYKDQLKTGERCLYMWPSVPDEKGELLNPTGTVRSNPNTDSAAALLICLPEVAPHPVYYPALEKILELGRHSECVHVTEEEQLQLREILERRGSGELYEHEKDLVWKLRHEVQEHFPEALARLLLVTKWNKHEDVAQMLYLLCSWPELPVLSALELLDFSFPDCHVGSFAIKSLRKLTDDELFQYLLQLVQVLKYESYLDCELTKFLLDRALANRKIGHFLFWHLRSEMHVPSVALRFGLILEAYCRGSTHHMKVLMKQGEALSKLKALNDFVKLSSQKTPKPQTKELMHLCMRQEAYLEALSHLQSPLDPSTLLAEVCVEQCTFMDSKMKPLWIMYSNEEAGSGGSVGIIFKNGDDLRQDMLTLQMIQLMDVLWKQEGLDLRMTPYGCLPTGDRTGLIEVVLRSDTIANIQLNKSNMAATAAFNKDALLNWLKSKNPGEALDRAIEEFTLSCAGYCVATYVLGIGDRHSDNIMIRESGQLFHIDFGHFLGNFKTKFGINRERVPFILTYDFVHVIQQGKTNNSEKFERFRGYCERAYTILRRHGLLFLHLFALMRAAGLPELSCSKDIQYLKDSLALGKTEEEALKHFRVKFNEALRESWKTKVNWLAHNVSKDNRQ
T3 sequence (P27986 whole entry partner): as the sequence (P27986 whole entry partner) above
The series can be described thus: PI 3-Kinase (human) HTRF assay, PI3K δ. The format is biochemical. Particulars: read-out: PI3K δ IC50.
Description: Briefly, the assay is a time resolved FRET assay that indirectly measures PIP3 product formed by the activity of a PI3-K. The kinase reaction is performed in a microtiter plate (e.g., a 384 well microtiter plate). The total reaction volume is approximately 20 ul per well. In the first step, each well receives 2 ul of test compound in 20% dimethylsulphoxide resulting in a 2% DMSO final concentration. […] The plate is sealed and incubated for 15 minutes at room temperature. […] The plate is sealed and incubated for 1 hour at room temperature. The reaction is stopped by adding 5 ul of Stop Solution per well and then 5 ul of Detection Mix is added per well. The plate is sealed, incubated for 1 hour at room temperature, and then read on an appropriate plate reader. Data is analyzed and IC50s are generated using GraphPad Prism 5.

Series [5] relates to T47D. The experiment in a line: T47D proliferation. It counts as cell-based. Particulars: Homo sapiens; T47D cell line.
The target of series [6] is T4, mTOR (Homo sapiens, UniProt P42345).
T4 construct: purchased Invitrogen
The series can be described thus: mTOR kinase inhibition assay (radiometric or LanthaScreen TR-FRET). The format is biochemical. The conditions noted are these: read-out: mTORC IC50.

Series [7] addresses T5, PI3K γ (p110γ) (Homo sapiens, UniProt P48736).
T5 construct: purchased Upstate / Millipore Corporation
The series can be described thus: PI 3-Kinase (human) HTRF assay, PI3K γ. It counts as biochemical. Particulars: read-out: PI3K γ IC50.

The structures appear in SMILES notation. Counter-ions that a name gives are not always drawn. Like-named read-outs stand apart in the source and are kept apart here. *1 amine or outer side, *2 acyl side, *3 side chain or, on linkers, in order; H or OH if unused. Where a SMILES comes first, the peptide text is derived from it. Bridges are numbered along the chain shown (N, C = ends). Roman numbers before positions name the chains, in order. [ ]: non-standard residue; d: D form. Actinocin(9to1) = Cc1c2oc3c(C)ccc(C(=O)[*:1])c3nc-2c(C(=O)[*:2])c(N)c1=O; NMeV = CN[C@H](C(=O)O)C(C)C; Sar = CNCC(=O)O

T1 sequence (P42336 whole entry): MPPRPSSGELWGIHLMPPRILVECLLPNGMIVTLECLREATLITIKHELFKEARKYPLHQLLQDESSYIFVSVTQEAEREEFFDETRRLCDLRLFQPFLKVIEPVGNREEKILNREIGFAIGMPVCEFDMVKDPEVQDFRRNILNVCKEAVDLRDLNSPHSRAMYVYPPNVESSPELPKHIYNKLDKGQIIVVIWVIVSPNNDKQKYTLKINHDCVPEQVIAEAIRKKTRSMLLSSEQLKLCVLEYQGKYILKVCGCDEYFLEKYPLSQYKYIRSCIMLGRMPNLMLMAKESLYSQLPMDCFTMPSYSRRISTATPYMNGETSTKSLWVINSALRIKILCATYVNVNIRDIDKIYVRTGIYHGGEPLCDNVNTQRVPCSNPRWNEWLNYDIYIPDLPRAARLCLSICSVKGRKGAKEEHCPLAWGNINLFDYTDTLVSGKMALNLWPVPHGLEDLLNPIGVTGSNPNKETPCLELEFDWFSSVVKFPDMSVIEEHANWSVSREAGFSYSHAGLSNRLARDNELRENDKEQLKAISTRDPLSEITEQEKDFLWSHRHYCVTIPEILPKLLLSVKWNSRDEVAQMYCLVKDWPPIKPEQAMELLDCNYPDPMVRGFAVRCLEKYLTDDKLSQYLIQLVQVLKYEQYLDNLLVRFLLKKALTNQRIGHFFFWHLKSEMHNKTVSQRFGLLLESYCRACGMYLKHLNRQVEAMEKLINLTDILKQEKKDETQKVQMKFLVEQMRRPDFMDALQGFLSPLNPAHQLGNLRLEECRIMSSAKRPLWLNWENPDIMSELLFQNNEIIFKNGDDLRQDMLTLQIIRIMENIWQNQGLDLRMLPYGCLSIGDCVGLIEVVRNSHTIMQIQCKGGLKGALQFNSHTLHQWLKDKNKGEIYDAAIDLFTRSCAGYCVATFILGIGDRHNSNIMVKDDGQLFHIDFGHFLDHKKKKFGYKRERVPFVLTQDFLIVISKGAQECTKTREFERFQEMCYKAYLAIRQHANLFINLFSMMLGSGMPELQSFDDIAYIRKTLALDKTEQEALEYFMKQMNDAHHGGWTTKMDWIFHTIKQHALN
T1 sequence (P27986 whole entry partner): as the sequence (P27986 whole entry partner) above
T5 sequence (P48736 whole entry): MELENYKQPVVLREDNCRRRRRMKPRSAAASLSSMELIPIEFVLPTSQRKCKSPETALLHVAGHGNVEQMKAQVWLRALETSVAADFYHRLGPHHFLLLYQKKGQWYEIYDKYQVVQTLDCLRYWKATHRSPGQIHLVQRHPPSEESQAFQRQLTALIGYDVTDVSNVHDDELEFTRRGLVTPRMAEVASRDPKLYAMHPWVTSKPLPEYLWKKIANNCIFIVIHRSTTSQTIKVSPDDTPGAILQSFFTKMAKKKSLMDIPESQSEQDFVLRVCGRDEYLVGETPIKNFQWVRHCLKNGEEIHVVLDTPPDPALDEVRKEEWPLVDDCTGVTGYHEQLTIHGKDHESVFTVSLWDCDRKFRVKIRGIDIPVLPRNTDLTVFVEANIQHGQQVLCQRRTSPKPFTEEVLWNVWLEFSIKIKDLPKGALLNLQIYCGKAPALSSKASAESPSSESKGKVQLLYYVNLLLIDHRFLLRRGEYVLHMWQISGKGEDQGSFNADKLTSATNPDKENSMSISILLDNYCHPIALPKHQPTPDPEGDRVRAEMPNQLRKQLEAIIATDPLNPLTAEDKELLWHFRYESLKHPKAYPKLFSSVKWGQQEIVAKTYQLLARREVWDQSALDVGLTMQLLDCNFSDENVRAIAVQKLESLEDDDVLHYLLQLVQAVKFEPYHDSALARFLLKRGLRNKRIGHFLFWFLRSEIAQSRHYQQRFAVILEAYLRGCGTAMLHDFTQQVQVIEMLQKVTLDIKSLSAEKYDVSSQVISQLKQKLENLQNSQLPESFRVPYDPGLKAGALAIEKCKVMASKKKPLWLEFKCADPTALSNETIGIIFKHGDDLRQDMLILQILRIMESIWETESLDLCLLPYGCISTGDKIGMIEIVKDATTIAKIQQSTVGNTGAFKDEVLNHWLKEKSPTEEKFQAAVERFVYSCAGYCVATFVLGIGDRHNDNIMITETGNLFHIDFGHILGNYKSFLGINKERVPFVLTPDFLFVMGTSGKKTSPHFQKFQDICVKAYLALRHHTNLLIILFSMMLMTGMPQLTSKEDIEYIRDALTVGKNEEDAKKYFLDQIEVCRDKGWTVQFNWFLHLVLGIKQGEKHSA

In the case of `CC(=O)O[C@@]12CO[C@@H]1C[C@H](O)[C@@]1(C)C(=O)[C@H](O)C3=C(C)[C@@H](OC(=O)[C@H](O)[C@@H](NC(=O)OC(C)(C)C)c4ccccc4)C[C@@](O)([C@@H](OC(=O)c4ccccc4)[C@H]21)C3(C)C` [docetaxel, (2R,3S)—N-carboxy-3-phenylisoserine, N-tert-butyl ester, 13-ester with 5β-20-epoxy-1,2α,4,7β,10β,13α-hexahydroxytax-1-1-en-9-one 4-acetate 2-benzoate, trihydrate], in series [1], the “dose limiting or most common side effect” value is recorded as “neutropenia”.
Consider `CS(=O)(=O)OCCCCOS(C)(=O)=O` [busulfan, 1,4-butanediol dimethanesulfonate], for which the “dose limiting or most common side effect” value in series [1] was “Bone marrow suppression”.
Turning to `CCc1c2c(nc3ccc(OC(=O)N4CCC(N5CCCCC5)CC4)cc13)-c1cc3c(c(=O)n1C2)COC(=O)[C@]3(O)CC` [irinotecan HCl, (4S)-4,11-diethyl-4-hydroxy-9-[(4-piperidinopiperidino)carbonyloxy]-1H-pyrano[3′,4′,6,7]indolizino[1,2-b]quinoline-3,14(4H,12H)-dione hydrochloride], the “dose limiting or most common side effect” value in series [1] was “myelosuppression, including neutropenia, and GI effects, including diarrhea”.
In the case of `N.N.O=C([O-])C1(C(=O)[O-])CCC1.[Pt+2]` [carboplatin, platinum, diamine [1,1-cyclobutane-dicarboxylate(2-)-O,O′]], the “dose limiting or most common side effect” value in series [1] was “Bone marrow suppression”.
In the case of `N.N.[Cl][Pt][Cl]` [cisplatin, cis-diamminedichloroplatinum], the “dose limiting or most common side effect” value in series [1] was “nephrotoxicity, which may be controlled by hydration and diuresis, and ototoxicity”.
In the case of `CN(Cc1cnc2nc(N)nc(N)c2n1)c1ccc(C(=O)N[C@@H](CCC(=O)O)C(=O)O)cc1` [methotrexate], in series [1], the “dose limiting or most common side effect” value is “Myelosuppression (leucopenia, thrombocytopenia, and anemia) and mucositis”.
For `COc1cccc2c1C(=O)c1c(O)c3c(c(O)c1C2=O)C[C@@](O)(C(=O)CO)C[C@@H]3O[C@H]1C[C@H](N)[C@H](O)[C@H](C)O1.Cl` [doxorubicin, (8S,10S)-10-[(3-amino-2,3,6-trideoxy-α-L-lyxo-hexopyranosyl)oxy]-8-glycoloyl, 7,8,9,10-tetrahydro-6,8,11-trihydroxy-1-methoxy-5,12 naphthacenedione hydrochloride], the “dose limiting or most common side effect” value in series [1] is given as “Myelosuppression”.
As usually defined, the IC50 is the concentration needed to halve the response being measured. Take `CC1CN(c2cnc3ccc(-c4ccc5oc(N)nc5c4)cc3n2)CCN1` (stereo not drawn) [Compound 149]: the IC50 in series [2] is less than 0.1 µM; in series [3] it was less than 0.1 µM; in series [4], less than 10 µM; in series [5], more than 10 µM.
Turning to `Nc1nc2nc[nH]c2c(=S)[nH]1` [thioguanine, 2-amino-1,7-dihydro-6H-purine-6-thione], the “dose limiting or most common side effect” value in series [1] was “Myelosuppression, including leucopenia, thrombocytopenia, and anemia”.
In the case of `CC[C@]1(O)C[C@H]2CN(CCc3c([nH]c4ccccc34)[C@@](C(=O)OC)(c3cc4c(cc3OC)N(C=O)[C@H]3[C@@](O)(C(=O)OC)[C@H](OC(C)=O)[C@]5(CC)C=CCN6CC[C@]43[C@@H]65)C2)C1` [vincristine, vincaleukoblastine, 22-oxo-, sulfate], the “dose limiting or most common side effect” value in series [1] was “Alopecia and neurologic effects”.
`O=c1[nH]cc(F)c(=O)[nH]1` [5-fluorouracil, 5-fluoro-2,4-(1H,3H) pyrimidinedione]: the “dose limiting or most common side effect” value in series [1] is “Myelosuppression and mucositis”.
`CC[C@@]1(O)C(=O)OCc2c1cc1n(c2=O)Cc2cc3c(CN(C)C)c(O)ccc3nc2-1` [topotecan HCl, (S)-10-[(dimethylamino)methyl]-4-ethyl-4,9-dihydroxy-1H-pyrano[3′,4′,6,7]-indolizino[1,2-b]quinoline-3,14-(4H,12H)-dione monohydrochloride]: the “dose limiting or most common side effect” value in series [1] is “myelosuppression, primarily neutropenia”.
Consider `O=C(O)CCCc1ccc(N(CCCl)CCCl)cc1` [chlorambucil], for which, in series [1], the “dose limiting or most common side effect” value is “Bone marrow suppression”.
Turning to `COc1cccc2c1C(=O)c1c(O)c3c(c(O)c1C2=O)C[C@@](O)(C(C)=O)C[C@@H]3O[C@H]1C[C@H](N)[C@H](O)[C@H](C)O1` [daunorubicin, (8S-cis-)-8-acetyl-10-[(3-amino-2,3,6-trideoxy-α-L-lyxo-hexopyranosyl)oxy]-7,8,9,10-tetrahydro-6,8,11-trihydroxy-1-methoxy-5,12 naphthacenedione hydrochloride], the “dose limiting or most common side effect” value in series [1] is given as “Myelosuppression”.
`N[C@@H](Cc1ccc(N(CCCl)CCCl)cc1)C(=O)O` [melphalan, 4-[bis(2-chloroethyl)amino]-L-phenylalanine]: in series [1], the “dose limiting or most common side effect” value is given as “Bone marrow suppression”.
As to `O.Sc1ncnc2nc[nH]c12` [mercaptopurine, 1,7-dihydro-6H-purine-6-thione monohydrate], the “dose limiting or most common side effect” value in series [1] is “Myelosuppression and gastrointestinal mucositis”.
For the compound `COc1cc([C@@H]2c3cc4c(cc3[C@@H](O[C@@H]3O[C@@H]5CO[C@@H](c6cccs6)O[C@H]5[C@H](O)[C@H]3O)[C@H]3COC(=O)[C@H]23)OCO4)cc(OC)c1O` [teniposide, 4′-demethyl-epipodophyllotoxin 9[4,6-0-(R)-thenylidene-β-D-glucopyranoside]], in series [1], the “dose limiting or most common side effect” value was “Myelosuppression”.
For the compound `O.O=P1(N(CCCl)CCCl)NCCCO1` (stereo not drawn) [cyclophosphamide, 2-[bis(2-chloroethyl)amino]tetrahydro-2H-1,3,2-oxazaphosphorine 2-oxide monohydrate], the “dose limiting or most common side effect” value in series [1] is “Alopecia, nausea, vomiting and leukopenia”.
For `Nc1ccn([C@@H]2O[C@H](CO)[C@@H](O)C2(F)F)c(=O)n1` [gemcitabine, 2′-deoxy-2′,2′-difluorocytidine monohydrochloride (β-isomer)], the “dose limiting or most common side effect” value in series [1] is “Myelosuppression, including leucopenia, thrombocytopenia, and anemia”.
For the compound `CCC1=C[C@@H]2CN(C1)Cc1c([nH]c3ccccc13)[C@@](C(=O)OC)(c1cc3c(cc1OC)N(C)[C@H]1[C@@](O)(C(=O)OC)[C@H](OC(C)=O)[C@]4(CC)C=CCN5CC[C@]31[C@@H]54)C2` (relative stereo) [vinorelbine, 3′,4′-didehydro-4′-deoxy-C′-norvincaleukoblastine [R—(R*,R*)-2,3-dihydroxybutanedioate (1:2)(salt)]], in series [1], the “dose limiting or most common side effect” value is on record as “Myelosuppression”.
As for `CC(C)N1CCN(c2cnc3ccc(-c4ccc5oc(N)nc5c4)nc3c2)CC1` [Compound 595], the 50% inhibitory concentration (IC50) is more than 10 µM in series [6] (Table 4 (PI3K α inhibitors)); less than 0.1 µM in series [2] (Table 4 (PI3K α inhibitors)); less than 1 µM in series [3] (Table 4 (PI3K α inhibitors)); less than 1 µM in series [7] (Table 4 (PI3K α inhibitors)); less than 1 µM in series [4] (Table 4 (PI3K α inhibitors)).
As for `CC(C)N1CCN(C2CN(c3cnc4ccc(-c5ccc6oc(N)nc6c5)cc4n3)C2)CC1` [Compound 331], the IC50 in series [6] is more than 10 µM; in series [2] it was less than 0.1 µM; in series [3] it was less than 10 µM; in series [7], less than 10 µM; in series [4], less than 10 µM.
As to `CC(=O)Nc1ncc(-c2ccc3oc(N)nc3c2)s1` [Compound 235], the IC50 was less than 10 µM in series [6]; less than 10 µM in series [2]; more than 10 µM in series [3]; less than 10 µM in series [7]; less than 10 µM in series [4].
As for `CS(=O)(=O)N1CCN(C2CN(c3cnc4ccc(-c5ccc6oc(N)nc6c5)cc4n3)C2)CC1` [Compound 328], the IC50 in series [6] is more than 10 µM; in series [2] it was less than 0.1 µM; in series [3] it was less than 10 µM; in series [7], less than 10 µM; in series [4] it was less than 10 µM.
In the case of `COC(=O)N1CCC(n2ncc3c(N4CCOCC4)nc(-c4ccc5oc(N)nc5c4)nc32)CC1` [Compound 330], the IC50 in series [6] was less than 1 µM; in series [2], less than 1 µM; in series [3] it was less than 10 µM; in series [7] it was more than 10 µM; in series [4] it was more than 10 µM.
With `Nc1nc2cc(-c3ccc4ncc(N5CC(C(=O)N6CCN(C7CC7)CC6)C5)nc4c3)ccc2o1` [Compound 276], the IC50 in series [6] was less than 10 µM; in series [2], less than 0.1 µM; in series [3], less than 10 µM; in series [7], less than 1 µM; in series [4] it was less than 1 µM.
Consider `CN(C)N=Nc1[nH]cnc1C(N)=O` [dacarbazine, 5-(3,3-dimethyl-1-triazeno)-imidazole-4-carboxamide], for which the “dose limiting or most common side effect” value in series [1] was “Nausea, vomiting, and anorexia”.
As for `Cc1c2oc3c(C)ccc(C(=O)N[C@@H]4C(=O)N[C@H](C(C)C)C(=O)N5CCC[C@H]5C(=O)N(C)CC(=O)N(C)[C@@H](C(C)C)C(=O)O[C@@H]4C)c3nc-2c(C(=O)N[C@@H]2C(=O)N[C@H](C(C)C)C(=O)N3CCC[C@H]3C(=O)N(C)CC(=O)N(C)[C@@H](C(C)C)C(=O)O[C@@H]2C)c(N)c1=O` [dactinomycin] (I: T[dV]P[Sar][NMeV] / II: T[dV]P[Sar][NMeV]; ester I:1-I:C, II:1-II:C; linker I:N-II:N via Actinocin(9to1)), the “dose limiting or most common side effect” value in series [1] is “Nausea, vomiting, and anorexia”.
Consider `Nc1nc2cc(-c3ccc4ncc(N5CCNC(=O)C5)nc4c3)ccc2o1` [Compound 135], for which the IC50 is more than 10 µM in series [6]; less than 0.1 µM in series [2]; less than 1 µM in series [3]; less than 1 µM in series [7]; more than 10 µM in series [4].
